Test results: US6448273B1, “Orally active iron (III) chelators” (BTG International Limited, priority 1997, dated 2002)
Counter-ions that a name gives are not always drawn. Like-named read-outs stand apart in the source and are kept apart here.

Legend:
[1] = Distribution coefficient DpH7.4 (Kpart), octanol/MOPS pH 7.4; assay type: physicochemical
Description: The requirements for orally active chelators are set out in Table 4 of Hider et al as (i) good absorption from tile gastrointestinal tract, (ii) efficient liver extraction, (iii) poor entry into peripheral cells such as thymus, muscle, heart and bone marrow and (iv) poor ability to penetrate the blood-brain barrier and maternal/placental barriers.

[2] = Iron III Mobilisation Efficacy Assay in Rat: Oral Administration; assay type: in vivo; settings: for Efficacy: iron mobilisation less control
Protocol: Control rats were given an equivalent volume of water. The rats were placed in individual metabolic cages and their urine and faeces collected. One hour after the administration they were allowed access to food, with no restriction on water being made throughout the study period. The investigation was terminated 24 hours after the ^59Fe ferritin administration when rats were sacrificed and their livers and gastrointestinal tracts, including all contents including faeces, were removed for gamma counting.

[3] = Iron (III) complex stability constant Logβ3; assay type: physicochemical
[4] = cited from earlier work
[5] = in vivo; cited from earlier work
[6] = pM for Iron III (affinity for iron as Fe III); assay type: physicochemical; settings: negative log ferric ion concentration; total iron 10^-6 M, ligand 10^-5 M
Description: The present inventors now have provided a group of 3-hydroxypyridin-4-one iron chelators having improved properties as compared to the prior art as assessed against the criteria set out above. […] Preferred compounds have efficiency of iron mobilisation of in excess of 52% when given orally to rats. […]

pKa of the ligand = assay type: physicochemical
[7] = method marked (p), first pKa, read-out: pKa, first value (p)
[8] = method marked (s), first pKa, read-out: pKa, first value (s)
[9] = method marked (p), second pKa, read-out: pKa, second value (p)
[10] = method marked (s), second pKa, read-out: pKa, second value (s)

Compound | DpH 7.4 [1] | Iron Mobilisation ([2]; 150 μmol/kg) [%] | Efficacy ([2]; 150 μmol/kg) [%] | Iron Mobilisation ([2]; 300 μmol/kg) [%] | Efficacy ([2]; 300 μmol/kg) [%] | Iron Mobilisation ([2]; 450 μmol/kg) [%] | Efficacy ([2]; 450 μmol/kg) [%] | Logβ3 [3] | effectiveness in man [4] | crossing of placenta and blood brain barrier [5] | phase II metabolism [5] | pMpH 7.45 [6] | pKa, first value (s) (pKa of the ligand; method marked (s), first pKa) | pKa, second value (s) (pKa of the ligand; method marked (s), second pKa) | melting point [°C] | pKa (pKa of the ligand; [7]) | pKa (pKa of the ligand; [8]) | pKa (pKa of the ligand; [9]) | pKa (pKa of the ligand; [10])
Cc1c(O)c(=O)ccn1C [CP20, reference compound] | 0.17 | 6.3 ± 2.1 | 2.4 | 9.2 ± 2.2 | 5.4 | 13.4 ± 5.2 | 9.5 | 36.3 | effective in man | able to cross the placenta and blood brain barrier | rapidly inactivated by phase II metabolism | 19.4 | 3.56 | 9.64 | – | – | – | – | –
CCc1c(O)c(=O)ccn1CC [CP94, 1,2-diethyl-3-hydroxypyridin-4-one, reference compound] | 1.79 | 16.5 ± 6.2 | 12.6 | 35.7 ± 4.4 | 31.8 | 59.7 ± 10.9 | 55.8 | 36.7 | effective in man | able to cross the placenta and blood brain barrier | rapidly inactivated by phase II metabolism | 19.7 | – | – | – | – | – | – | –
O=c1ccn(CCCO)c(CO)c1O [CP366, 1-(3-hydroxypropyl)-2-hydroxymethyl-3-hydroxy-pyridin-4(1H)-one] | 0.056 | – | – | – | – | – | – | 35.25 | – | – | – | 20.69 | 2.87 | 9.14 | 138 to 139 | – | – | – | –
CCC(O)c1c(O)c(=O)cc(C)n1C (centres unmarked) [CP374, 1,6-Dimethyl-2-(1-hydroxypropyl)-3-hydroxy-pyridin-4(1H)-one hydrochloride] | 0.73 | 34.0 ± 4.3 | 30.1 | – | – | 60.4 ± 15.6 | 56.5 | 35.03 | – | – | – | 20.95 | – | 8.98 | – | 2.76 | 2.78 | – | –
Cc1cc(=O)c(O)c(C(=O)NC(C)C)n1C [CP504, 1,6-Dimethyl-3-hydroxy-4(1H)-pyridinone-2-carboxy-(N-isopropyl)-amide hydrochloride] | 0.30 | – | – | – | – | – | – | 35.34 | – | – | – | 22.46 | – | – | – | 2.81 | 2.64 | 8.74 | 8.56
COCCNC(=O)c1c(O)c(=O)cc(C)n1C [CP506, 1,6-Dimethyl-3-hydroxy-4(1H)-pyridinone-2-carboxy-(N-2′-methoxyethyl)-amide hydrochloride] | 0.04 | – | – | – | – | – | – | 34.88 | – | – | – | 22.57 | – | – | – | 2.62 | 2.5 | 8.34 | 8.35
Cc1cc(=O)c(O)c(C(=O)NCCO)n1C [CP507, 1,6-Dimethyl-3-hydroxy-4(1H)-pyridinone-2-carboxy-(N-2′-hydroxyethyl)-amide hydrochloride] | 0.02 | – | – | – | – | – | – | 34.63 | – | – | – | 22.73 | – | – | – | 2.65 | 2.57 | 8.28 | 8.19
Cc1cc(=O)c(O)c(C(=O)N(C)C)n1C [CP508, 1,6-Dimethyl-3-hydroxy-4(1H)-pyridinone-2-carboxy-(N,N-dimethyl)-amide hydrochloride] | 0.16 | – | – | – | – | – | – | 35.13 | – | – | – | 23.46 | – | – | – | 2.61 | 2.61 | 8.1 | 8.1
O=c1ccn(CCO)c(C(O)c2ccccc2)c1O (centres unmarked) [Novartis bidentate ligand (3), reference compound] | 2.81 | – | – | – | – | – | – | 35.57 | – | – | – | 23.15 | – | – | – | 2.59 | 2.6 | 8.38 | 8.39
